Like-named read-outs stand apart in the source and are kept apart here.

The target in one data set is T1, EGFR-TK (Homo sapiens, UniProt P00533).
T1 construct: 0.2 mg/mL Poly (Glu, Tyr) substrate, 10 mM ATP and EGFR
Nature of the data set: EGFR tyrosine kinase inhibitory activity (Kinase-Glo Plus luminescence). Conditions: for inhibition at 10 µM: read-out: Percent of Inhibition, EGFR tyrosine kinase. Type of data set: biochemical. The procedure: Kinase activity was determined using Kinase-Glo Plus luminescence kinase assay kit, by quantitating the amount of ATP remaining in the solution of kinase reaction. The luminescent signal is correlated with the residual amount present and it was inversely related with kinase activity. The tested compounds were diluted to 100 mM in 10% DMSO, then […] of the dilution was added to a 50 mL reaction. All of the enzymatic reactions were performed at 30 °C for 40 min, 50 mL of reaction mixture contains 10 mM MgCl2, 40 mM Tris, pH 7.4, 0.1 mg/mL BSA, 0.2 mg/mL Poly (Glu, Tyr) substrate, 10 mM ATP and EGFR. Incubate the plate for 5 min at r.t. then add 50 mL of Kinase-GloPlus Luminescence kinase assay to each reaction. ADP-Glo assay kit is the protein kinase assays used to determine IC50 values in which ADP generation was measured as it leads to an increase in luminescence signal. The reaction mixture was incubated in a 96-well plate at 30 °C for 30 min, after the incubation period add 25 mL of ADP-Glo reagent to terminate the assay. Shake the 96-well plate for 30 min at ambient temperature then incubate it, then add 50 mL of kinase detection reagent. Read the 96-well plate using the ADP-Glo Luminescence reader. All the assay components were added to the blank control except the substrate. By removing the blank control value you can obtain the corrected activity for each protein kinase target.

Another data set has as its system HeLa (cervical cancer). The experiment in a line: MTT in vitro cytotoxicity assay, HeLa. Type of data set: cell-based, human. The procedure:
(§1) The synthesized compounds were evaluated for in-vitro cytotoxic activity against various cell lines such as HeLa (cervical cancer), MCF-7 (breast cancer), HL-60 (Human promyelocytic leukemia), HepG2 (Hepatocellular carcinoma) and MCF 12A (normal epithelial cell) by the MTT assay method. […] The relationship between surviving fraction and drug concentration was plotted to obtain the survival curve of all the cancer cell lines HeLa, MCF-7, HL-60 and HepG2. The response parameter calculated was the IC50 values, which responds to the concentration required for 50% inhibition of cell viability. The in-vitro cytotoxic activity of the synthesized compounds is summarized Table 3.
(§2) The target compounds were subjected to in vitro cytotoxicity bioassay. In vitro cytotoxicity was determined using a standard MTT assay with protocol appropriate for the individual test system[29]–[31]. The four human cancer cell lines HeLa, MCF-7, HL-60, HepG2 and MCF-12A were cultured in the MEM medium supplemented with 10% FBS, 1% glutamine and […] gentamicin sulfate in a CO2 incubator in a humidified atmosphere of 5% CO2 and 95% air. The test compounds were prepared prior to the experiment by dissolving in 0.1% DMSO and diluted with medium. The cells were then exposed to different concentrations of drugs ([…]) in the volume of […]. Cells in the control wells received the same volume of medium containing 0.1% DMSO. After 24 h, the medium was removed and cell cultures were incubated with […] MTT reagent (1 mg/ml) for 5 h at 37 °C. The known number of cells ([…]) was incubated in a 5% CO2 incubator at 37 °C in the presence of different concentrations of test compounds. After 48 h of drug incubation, the MTT solution was added in each well and absorbance was recorded at 540 nm by an ELISA reader. The experiment was performed in triplicate. Cell survival was calculated as the percentage of MTT inhibition as % growth inhibition = 100 − (mean OD of individual test Group/Mean OD of each Control Group) × 100.

Another data set relates to MCF-7 (breast cancer). Nature of the data set: MTT in vitro cytotoxicity assay, MCF-7. Type of data set: cell-based, human. How it is done: as §1, §2
Data set [1] relates to HL-60 (Human promyelocytic leukemia). Nature of the data set: MTT in vitro cytotoxicity assay, HL-60. Type of data set: cell-based. The procedure:
as §1, §2

Data set [2] concerns MCF 12A (normal epithelial breast cell line). Nature of the data set: MTT assay on normal cells, MCF 12A. Conditions: normal epithelial breast cell MCF 12A; for IC50: Homo sapiens. Type of data set: cell-based, human. The procedure:
as §1
The presence of non-halogen substituent along with electron donating substituent seriously jeopardise the anticancer potential. […] To determine the selectivity of these molecules between normal and cancerous cells, the designed compounds were also tested against MCF 12A, a normal epithelial breast cell.
as §2

The test system of data set [3] is HepG2 (Hepatocellular carcinoma). The experiment in a line: MTT in vitro cytotoxicity assay, HepG2. Format: cell-based, human. Particulars: NA: Not active. The procedure:
as §1, §2

T1 sequence (P00533 25-1210): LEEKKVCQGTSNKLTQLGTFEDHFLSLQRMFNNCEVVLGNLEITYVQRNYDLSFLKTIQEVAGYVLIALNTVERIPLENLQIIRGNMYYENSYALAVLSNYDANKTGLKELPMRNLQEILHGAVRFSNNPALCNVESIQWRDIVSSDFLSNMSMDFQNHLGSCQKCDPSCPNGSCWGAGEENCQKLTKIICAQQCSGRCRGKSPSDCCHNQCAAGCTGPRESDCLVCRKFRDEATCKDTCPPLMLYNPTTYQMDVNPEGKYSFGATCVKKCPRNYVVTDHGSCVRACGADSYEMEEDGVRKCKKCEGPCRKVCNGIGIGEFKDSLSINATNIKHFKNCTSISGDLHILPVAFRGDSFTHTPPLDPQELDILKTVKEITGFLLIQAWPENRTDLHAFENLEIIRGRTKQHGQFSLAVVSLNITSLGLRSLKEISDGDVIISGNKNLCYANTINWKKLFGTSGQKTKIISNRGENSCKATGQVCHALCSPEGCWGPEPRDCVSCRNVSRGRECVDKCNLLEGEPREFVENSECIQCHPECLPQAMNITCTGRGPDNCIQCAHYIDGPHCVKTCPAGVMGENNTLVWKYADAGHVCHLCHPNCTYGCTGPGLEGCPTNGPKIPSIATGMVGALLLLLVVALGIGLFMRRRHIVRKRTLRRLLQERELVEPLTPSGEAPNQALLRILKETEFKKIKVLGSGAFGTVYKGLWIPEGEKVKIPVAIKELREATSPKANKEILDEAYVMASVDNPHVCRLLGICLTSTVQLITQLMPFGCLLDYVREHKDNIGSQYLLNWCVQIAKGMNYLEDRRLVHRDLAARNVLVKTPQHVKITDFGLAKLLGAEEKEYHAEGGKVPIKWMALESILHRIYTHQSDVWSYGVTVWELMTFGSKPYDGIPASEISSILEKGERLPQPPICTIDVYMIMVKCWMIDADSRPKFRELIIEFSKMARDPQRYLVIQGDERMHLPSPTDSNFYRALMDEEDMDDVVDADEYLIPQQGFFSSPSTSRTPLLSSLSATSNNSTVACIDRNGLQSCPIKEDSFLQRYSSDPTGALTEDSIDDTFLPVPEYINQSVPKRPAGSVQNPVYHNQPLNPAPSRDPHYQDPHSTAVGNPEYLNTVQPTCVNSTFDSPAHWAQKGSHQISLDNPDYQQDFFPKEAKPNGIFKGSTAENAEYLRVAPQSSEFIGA

Consider `CCOC(=O)C1=C(C)N(c2nc(Nc3ccc(C)cc3)nc(Nc3ccc(C)cc3)n2)C(=S)NC1c1ccccc1C` (stereo not shown) [7n, Ethyl 1-(4,6-bis(p-tolylamino)-1,3,5-triazin-2-yl)-6-methyl-2-thioxo-4-(o-tolyl)-1,2,3,4-tetrahydropyrimidine-5-carboxylate], for which the melting point was 205 to 207 °C. In addition, on EGFR-TK (at 10 µM), the inhibition at 10 µM is 54.2%. In the data set with HeLa (cervical cancer) (Homo sapiens), this compound registered a 50% inhibitory concentration (IC50) of 92.6 ± 0.23 µM. For the same compound, half-maximal inhibition in the data set with MCF-7 (breast cancer) (Homo sapiens, MCF7) (IC50) was put at 93.2 ± 0.58 µM. In data set [1] (Homo sapiens), this compound showed a concentration for half-maximal inhibition (IC50) of 104.5 ± 0.39 µM. The “IC50 MCF 12A” value in data set [2] is “non-toxic”.
Turning to `CCOC(=O)C1=C(C)N(c2nc(Nc3ccc(C)cc3)nc(Nc3ccc(C)cc3)n2)C(=S)NC1c1ccc(O)cc1` (stereo not shown) [7o, Ethyl 1-(4,6-bis(p-tolylamino)-1,3,5-triazin-2-yl)-4-(4-hydroxyphenyl)-6-methyl-2-thioxo-1,2,3,4-tetrahydropyrimidine-5-carboxylate], the melting point was 131 to 133 °C. In addition, on EGFR-TK (at 10 µM), the inhibition at 10 µM was 45.6%. Inhibition in the data set on HeLa (cervical cancer) (Homo sapiens) was half-maximal at 94.3 ± 0.78 µM (IC50). Moreover, in the data set with MCF-7 (breast cancer) (Homo sapiens, MCF7), half-maximal inhibition (IC50) required 89.4 ± 0.49 µM. The IC50 in data set [1] (Homo sapiens) stood at 98.3 ± 0.27 µM. In addition, the “IC50 MCF 12A” value in data set [2] is listed as “non-toxic”.
Compound `CCOC(=O)C1=C(C)N(c2nc(Nc3cccc(Cl)c3)nc(Nc3cccc(Cl)c3)n2)C(=S)NC1c1ccc(F)cc1` (stereo not shown) [7m, Ethyl 1-(4,6-bis((3-chlorophenyl)amino)-1,3,5-triazin-2-yl)-4-(4-fluorophenyl)-6-methyl-2-thioxo-1,2,3,4-tetrahydropyrimidine-5-carboxylate] returned a melting point of 153 to 155 °C. The inhibition at 10 µM at EGFR-TK (at 10 µM) was found to be 88.5%. This compound yielded a half-inhibitory concentration (IC50) with HeLa (cervical cancer) (Homo sapiens) of 42.1 ± 0.34 µM. For the same compound, the 50% inhibitory concentration (IC50) in data set [3] (Homo sapiens) is 39.3 ± 0.12 µM. In the data set with MCF-7 (breast cancer) (Homo sapiens, MCF7), this compound displayed an IC50 of 53.8 ± 0.28 µM. The same compound displayed an IC50 in data set [1] (Homo sapiens) of 36.5 ± 0.48 µM. The 50% inhibitory concentration (IC50) in data set [2] worked out at 73.56 ± 0.4 µM.
The compound `CCOC(=O)C1=C(C)N(c2nc(Nc3cccc(F)c3)nc(Nc3cccc(F)c3)n2)C(=S)NC1c1ccccc1OC` (stereo not shown) [7g, Ethyl 1-(4,6-bis((3-fluorophenyl)amino)-1,3,5-triazin-2-yl)-4-(2-methoxyphenyl)-6-methyl-2-thioxo-1,2,3,4-tetrahydropyrimidine-5-carboxylate] returned a melting point of 132 to 135 °C. In addition, the inhibition at 10 µM on EGFR-TK (at 10 µM) was determined as 94.3%. In the data set on HeLa (cervical cancer) (Homo sapiens), this compound came in with an IC50 of 42.1 ± 0.12 µM. The compound also showed an IC50 in data set [3] (Homo sapiens) of 36.3 ± 0.47 µM. For the same compound, in the data set with MCF-7 (breast cancer) (Homo sapiens, MCF7), it took 47.4 ± 0.27 µM to reach half-maximal inhibition (IC50). Besides, the IC50 in data set [1] (Homo sapiens) came out at 31.5 ± 0.21 µM. Moreover, in data set [2], the IC50 worked out at 77.22 ± 0.34 µM.
Compound `CCOC(=O)C1=C(C)N(c2nc(Nc3ccccc3[N+](=O)[O-])nc(Nc3ccccc3[N+](=O)[O-])n2)C(=S)NC1c1ccc(C)cc1` (stereo not shown) [7c, Ethyl 1-(4,6-bis((2-nitrophenyl)amino)-1,3,5-triazin-2-yl)-6-methyl-2-thioxo-4-(p-tolyl)-1,2,3,4-tetrahydropyrimidine-5-carboxylate] had a melting point of 232 to 234 °C. In addition, the inhibition at 10 µM at EGFR-TK (at 10 µM) turned out to be 53.6%. Further, in the data set with HeLa (cervical cancer) (Homo sapiens), the half-maximal inhibitory concentration (IC50) came to 83.5 ± 0.22 µM. The same compound yielded an IC50 in data set [3] (Homo sapiens) of 86.4 ± 0.67 µM. Further, the half-maximal inhibitory concentration (IC50) with MCF-7 (breast cancer) (Homo sapiens, MCF7) worked out at 72.2 ± 0.61 µM. This compound also yielded a half-inhibitory concentration (IC50) in data set [1] (Homo sapiens) of 70.5 ± 0.49 µM. For the same compound, the “IC50 MCF 12A” value in data set [2] is given as “non-toxic”.
Regarding `CCOC(=O)C1=C(C)N(c2nc(Nc3cccc(Br)c3)nc(Nc3cccc(Br)c3)n2)C(=S)NC1c1ccc([N+](=O)[O-])cc1` (stereo not shown) [7k, Ethyl 1-(4,6-bis((3-bromophenyl)amino)-1,3,5-triazin-2-yl)-6-methyl-4-(4-nitrophenyl)-2-thioxo-1,2,3,4-tetrahydropyrimidine-5-carboxylate], the “%i” value at EGFR-TK (EGFR-TK percent inhibition as repeated in docking Table 5) came out at 70.1%. Further, on EGFR-TK (at 10 µM), the “Percent of Inhibition, EGFR tyrosine kinase” value was found to be 70.1%. The inhibition at 10 µM on EGFR-TK (at 10 µM) was about 69%. The IC50 came to 66.4 ± 0.67 µM with HeLa (cervical cancer) (Homo sapiens); 59.7 ± 0.69 µM in data set [3] (Homo sapiens); 65.6 ± 0.43 µM in the data set with MCF-7 (breast cancer) (Homo sapiens, MCF7); 51.3 ± 0.82 µM in data set [1] (Homo sapiens). In data set [2], the “IC50 MCF 12A” value was “non-toxic”.
Regarding `N.N.[Cl][Pt][Cl]` [Cisplatin, reference compound], the IC50 in the data set with HeLa (cervical cancer) amounted to 32.5 ± 0.62 µM; in data set [3], 25.9 ± 0.82 µM; in the data set on MCF-7 (breast cancer) it was 24.4 ± 0.92 µM; in data set [1] it was 12.3 ± 0.76 µM. Also, the “IC50 MCF 12A” value in data set [2] was “non-toxic”.

The record behind these values is paper PMC5517562, “Design and discovery of novel monastrol-1,3,5-triazines as potent anti-breast cancer agent via attenuating Epidermal Growth Factor Receptor tyrosine kinase” (Scientific Reports, 2017).
